Reference: US7666879B2, “Imidazo[1,2-A]pyridine compounds as VEGF-R2 inhibitors” (Eli Lilly and Company, priority 2005, dated 2010)
Blank lines part the entries; values can stand above or below the compound they belong to.

Key:
VEGFR2 (KDR) = molecular target: T1, VEGFR2 (KDR) (Homo sapiens, UniProt P35968); assay: KDR-CD in vitro autophosphorylation kinase assay; format: biochemical; conditions: 30 minute preincubation of compound and enzyme; average of at least two separate determinations; 1 μM ATP
T1 construct: The isolated catalytic domain (Amino Acids 807-1356) of VEGFR2; 6xHis (N); made in house; host or cells: Sf9 insect cells (baculovirus, pFASTBac-HIS)
T1 sequence (P35968 807-1356): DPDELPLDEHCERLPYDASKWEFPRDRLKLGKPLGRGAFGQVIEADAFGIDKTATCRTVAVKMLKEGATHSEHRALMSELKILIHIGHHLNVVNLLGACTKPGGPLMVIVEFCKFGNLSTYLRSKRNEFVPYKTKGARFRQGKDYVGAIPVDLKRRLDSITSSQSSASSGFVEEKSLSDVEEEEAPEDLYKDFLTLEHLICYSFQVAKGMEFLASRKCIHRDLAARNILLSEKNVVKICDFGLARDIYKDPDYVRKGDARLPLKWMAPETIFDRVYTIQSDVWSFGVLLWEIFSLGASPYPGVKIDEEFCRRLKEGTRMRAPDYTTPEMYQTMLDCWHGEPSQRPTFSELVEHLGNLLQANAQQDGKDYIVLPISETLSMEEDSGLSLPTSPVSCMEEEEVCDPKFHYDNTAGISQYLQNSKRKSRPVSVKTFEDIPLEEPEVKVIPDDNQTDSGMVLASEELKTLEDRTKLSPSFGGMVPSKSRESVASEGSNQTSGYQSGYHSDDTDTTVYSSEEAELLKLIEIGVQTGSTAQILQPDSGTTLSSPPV
Experimental: The following assay is performed to measure the IC50 values of inhibition of phosphorylation of VEGF-R2 with compounds of the present invention.
Autophosphorylation Enzyme Assay
A. VEGFR2 (KDR) cloning and purification.
The isolated catalytic domain (Amino Acids 807-1356) of VEGFR2 (KDR-CD, cloned from a human heart cDNA library) is cloned by standard PCR procedures (pCR-Script to make plasmid P340) as a BamHI/HindIII fragment using the following primers: Upper: 5′-[…]-3′ and Lower: 5′-[…]-3′, its nucleotide sequence is verified and it is subcloned into the pFASTBac-HIS™ vector system (Gibco-BRL) (to give plasmid B344) for baculovirus expression. (Carroll, et al., J. Biol. Chem, 268, 12837-42 (1993). KDR-CD is expressed as an N-terminal 6×HIS fusion protein in Sf9 cells (Gibco-BRL) and purified according to standard affinity chromatography protocols (For example, Amersham Pharmacia Biotech: Affinity Chromatography Principles and Methods #18-1022-29). Briefly, 15-25 g pellets are lysed in lysis buffer (50 mM Tris pH 7.5, 150 mM NaCl, 0.5% NP40 (CalbioChem) with freshly added 20 mM -mercaptoethanol, 10 mM imidazole, 1 mM PMSF(protease inhibitor (phenylmethanesulfonyl fluoride) from Sigma), 1×EDTA-free complete protease inhibitor (Boehringer Mannheim)) on ice for 30 minutes. The cell lysates are cleared by centrifugation at 30,000 g for 20 minutes at 4° C., filtered through a […] and applied to a NiNTA™ column (Qiagen). Unbound protein is removed with successive RIPA buffer washes (50 mM Tris pH 7.5, 150 mM NaCl, 1% NP40, 1 mM EDTA, 0.25% sodium deoxycholate, 20 mM -mercaptoethanol), lysis buffer washes and finally 1× kinase buffer (KB) washes (100 mM HEPES pH 7.5, 10 mM MnCl2, 5 mM -mercaptoethanol). KDR protein is eluted in 1× KB containing a linear gradient of 200 mM imidazole over 10 column volumes. The peak fractions (based on a SDS-PAGE gel analysis) are combined, concentrated by Centricon™ to ˜1 mg/mL and desalted over an HR26/10 desalting column (Amersham Pharmacia) in 1× KB. This KDR prep is estimated to be ˜40% pure with only KDR tyrosine kinase activity detectable by anti-phosphotyrosine western analysis following the in vitro autophosphorylation reaction.
B. KDR-CD In Vitro Autophosphorylation Kinase Assay
Kinase reactions contain 1 μg total protein in 40 μL reaction volume containing 4% (v/v) DMSO final concentration, 1 μM ATP, 1 uCi/rxn ^33P-ATP (from NEN) in 1×KB. A compound dilution series of 20 μM to 1.0 nM is added to the above reaction to determine compound activity; test compound may be pre-incubated with KDR enzyme for up to 30 minutes at 30° C. prior to addition of the radiolabel. The radiolabeling reaction is carried out at 30° C. for 20 minutes before adding 100 μL 25% TCA with 3 mM ATP to stop the reaction, then precipitated with 50 μL 1 mg/mL BSA. The quenched reactions are transferred to MultiScreen™-FC plates (Millipore) and incubated for 1 hour at room temperature. The plates are filtered, washed 3× with 250 μL 10% TCA and blotted dry. MicroScint™20 (Packard) is added and the plate is counted on a Wallac Microbeta™. Dougher-Vermazen, M. et al., Biochem Biophys Res Commun 205(1): 728-738 (1994). The IC50 values are calculated from a logistic 4-parameter curve fit.
All values are determined using a 30 minute preincubation of compound and enzyme prior to initiating the labeling reaction and represent the average of at least two separate determinations: […]

[1] = tested on: PC-3 human prostate adenocarcinoma cells; assay: In vivo efficacy in PC-3 prostate tumor xenografts; design: species or system mice; key to Mean Tumor Volume: mg, volume calculated as l×w^2×0.536 from caliper diameters; conditions: for Signif. (tumor volume vs vehicle control, two-way ANOVA) / Mean Tumor Volume: oral gavage
Experimental: In Vivo Efficacy in PC-3 Prostate Tumor Xenografts
Male SCID mice (Fox Chase, Taconic laboratories) are implanted s.c. in the rear flank with 0.2 mL of a cell suspension prepared in serum-free media containing 5×10^6 PC-3 human prostate adenocarcinoma cells (obtained from ATCC). Example 130 is prepared as a suspension in 1% CMC/0.25% Tween 80 and administered by oral gavage for 21 days beginning after tumors reach approximately 150-200 mg (volume calculated by l×w^2×0.536 where l is the larger and w is the smaller of perpendicular diameters determined by caliper measurement). Example 130 is administered twice daily (12 hours apart) for the 15, 7.5, and 3.75 mg/kg doses while the 30 mg/kg dose is given once daily. Groups consists of 8 mice each and one group receives 0.2 mL of the CMC/Tween vehicle twice daily as a control.

Compound: CC(C)(C)c1cc(NC(=O)Cc2ccc(-c3cnc4cc(-c5ccc(S(C)(=O)=O)cc5)ccn34)cc2F)no1 [Example 196, N-(5-tert-Butyl-isoxazol-3-yl)-2-{2-fluoro-4-[7-(4-methanesulfonyl-phenyl)-imidazo[1,2-a]pyridin-3-yl]-phenyl}-acetamide]
IC50 (VEGFR2 (KDR)): 106 nM

Compound: CC(C)(C)c1cc(NC(=O)Nc2ccc(-c3cnc4cc(-c5ccncc5)ccn34)cc2F)no1 [Example 130, 1-(5-tert-Butyl-isoxazol-3-yl)-3-[2-fluoro-4-(7-pyridin-4-yl-imidazo[1,2-a]pyridin-3-yl)-phenyl]-urea]
IC50 (VEGFR2 (KDR)): 42 nM | Signif. (tumor volume vs vehicle control, two-way ANOVA) ([1]; 3.75 mg/kg twice daily, Day 55): ** (**: 0.001 < p <= 0.01) | Mean Tumor Volume ([1]; 3.75 mg/kg twice daily, Day 55, PC-3 xenograft in male SCID mice): 268.1 | Signif. (tumor volume vs vehicle control, two-way ANOVA) ([1]; 3.75 mg/kg twice daily, Day 57): *** (***: p <= 0.001) | Mean Tumor Volume ([1]; 3.75 mg/kg twice daily, Day 57, PC-3 xenograft in male SCID mice): 310.1 | Signif. (tumor volume vs vehicle control, two-way ANOVA) ([1]; 7.5 mg/kg twice daily, Day 55): *** (***: p <= 0.001) | Mean Tumor Volume ([1]; 7.5 mg/kg twice daily, Day 55, PC-3 xenograft in male SCID mice): 100.8 | Signif. (tumor volume vs vehicle control, two-way ANOVA) ([1]; 7.5 mg/kg twice daily, Day 57): *** (***: p <= 0.001) | Mean Tumor Volume ([1]; 7.5 mg/kg twice daily, Day 57, PC-3 xenograft in male SCID mice): 86.3 | Signif. (tumor volume vs vehicle control, two-way ANOVA) ([1]; 15 mg/kg twice daily, Day 55): *** (***: p <= 0.001) | Mean Tumor Volume ([1]; 15 mg/kg twice daily, Day 55, PC-3 xenograft in male SCID mice): 67.7 | Signif. (tumor volume vs vehicle control, two-way ANOVA) ([1]; 15 mg/kg twice daily, Day 57): *** (***: p <= 0.001) | Mean Tumor Volume ([1]; 15 mg/kg twice daily, Day 57, PC-3 xenograft in male SCID mice): 62.2 | Signif. (tumor volume vs vehicle control, two-way ANOVA) ([1]; 30 mg/kg once daily, Day 55): *** (***: p <= 0.001) | Mean Tumor Volume ([1]; 30 mg/kg once daily, Day 55, PC-3 xenograft in male SCID mice): 95.7 | Signif. (tumor volume vs vehicle control, two-way ANOVA) ([1]; 30 mg/kg once daily, Day 57): *** (***: p <= 0.001) | Mean Tumor Volume ([1]; 30 mg/kg once daily, Day 57, PC-3 xenograft in male SCID mice): 86.8 | tumor volume, treatment groups versus control group at study termination ([1]; male SCID mice, oral gavage for 21 days, 15, 7.5, 3.75 mg/kg twice daily, 30 mg/kg once daily, two-way ANOVA): statistically different from the control group (p<0.001)

Compound: CC(C)(C)c1cc(NC(=O)Cc2ccc(-c3cnc4cc(-c5ccncc5)ccn34)cc2)ncn1 [Example 289, N-(6-tert-Butyl-pyrimidin-4-yl)-2-[4-(7-pyridin-4-yl-imidazo[1,2-a]pyridin-3-yl)-phenyl]-acetamide]
IC50 (VEGFR2 (KDR)): 41 nM

The remaining compounds from weak to strong by IC50 (VEGFR2 (KDR)), led by results:

IC50 (VEGFR2 (KDR)): 46 nM
Compound: CC(C)(C)c1cc(NC(=O)Cc2ccc(-c3cnc4cc(-c5cn[nH]c5)ccn34)cc2)no1 [Example 303, N-(5-tert-Butyl-isoxazol-3-yl)-2-{4-[7-(1H-pyrazol-4-yl)-imidazo[1,2-a]pyridin-3-yl]-phenyl}-acetamide]

IC50 (VEGFR2 (KDR)): 28 nM
Compound: CC(C)(C)c1cnc(NC(=O)NCc2ccc(-c3cnc4cc(-c5ccncc5)ccn34)cc2)s1 [Example 39, 1-(5-tert-Butyl-thiazol-2-yl)-3-[4-(7-pyridin-4-yl-imidazo[1,2-a]pyridin-3-yl)-benzyl]-urea, methane sulfonate]

IC50 (VEGFR2 (KDR)): 26 nM
Compound: O=C(Cc1ccc(-c2cnc3cc(-c4ccncc4)ccn23)cc1)Nc1cccc(C(F)(F)F)c1 [Example 173, 2-[4-(7-Pyridin-4-yl-imidazo[1,2-a]pyridin-3-yl)-phenyl]-N-(3-trifluoromethyl-phenyl)-acetamide]
